# Experimental data from patent US20240131198A1, “RATIOMETRIC BIOSENSOR TATTOOS AND USE THEREOF FOR REAL TIME MEASUREMENTS” (priority 2022, published 2024).
# Tests used:
# rat skin = experiment: Delivery of Cy5-PEG/Cy3-PEG microneedle tattoo to the shaved skin of living rats; assay type: in vivo; conditions: MN delivery, fluorescence stereomicroscopy several hours after application
# [1] = test system: inflammatory filaggrin-deficient (FLG-) skin model; experiment: H-Cy5-PEG/Cy7.5-PEG microneedle tattoo in human-based atopic skin model; assay type: cell-based; conditions: human-based atopic model of skin inflammation, 20 minutes
# Method: To provide the proof of concept for our approach and to validate the potential use of a medical tattoo in a biological system, the sensing properties of the generated MNs were tested in human-based inflammatory skin model that closely emulates characteristics of atopic skin in vitro^[76] and has been previously verified for the presence of disease-relevant ROS.^[77] This model has been extensively characterized in previous work showing excellent correlation with atopic skin in vivo.^[76,78,79] The skin model is based on a filaggrin knockdown, as filaggrin mutations are a major pre-disposing factor for AD.^[80] […] Cy7.5 was selected based on its structural similarity to Cy5 and other cyanines, displaying similar physicochemical properties and allowing PEGylation in the same manner as Cy5, as well as its NIR fluorescence (λex=788 nm; λem=808 nm), optimal for visibility in the skin. […]
# The MNs rapidly dissolved within 2 minutes, after which the backing layer was carefully removed. The fluorescence intensities of the sensor and reference dye in the skin models were determined using an IVIS Lumina II imaging system (Perkin Elmer) at 0, 5, 15 and 20 mins after MN application. […] The fluorescence signal for each model was assessed by selecting a region of interest (ROI) and by the signal-to-noise ratio (Cy5 ROI/Cy7.5 ROI).
# UV-induced dermal ROS = experiment: In vivo sensing of UV irradiation-induced ROS in rat skin; parameters: species or system Sprague-Dawley rats; conditions: 30 minutes after application, t=0 h and t=24 h after irradiation
# Source text: Male Sprague-Dawley rats (Charles River, St-Constant, QC) with weight ranging from 300-350 g at delivery were used for this study. Following arrival in the animal facility, all animals were subjected to a general health evaluation. An acclimation period of 5 days was allowed before the beginning of the study. Each animal cage was equipped with a manual water distribution system. A standard certified commercial rodent diet was provided ad libitum. Tap water was provided ad libitum at all times. Rats dorsal skin was shaved and depilated under isoflurane-induced anesthesia using an electric razor and depilating cream (Nair, Church & Dwight) the day before experimentation. Rats were extensively rinsed to prevent burning with residual depilating agent. For irradiation, animals were anesthetized with isoflurane and placed under the UV irradiating lamp (Daavlin 24″ research unit×305/350-6/6) equipped with a UV power meter to manually validate constant dosimetry. Irradiated animal received 700 mJ·cm^2 of UVB. […] Three MN arrays were applied at the same time on different sites of the dorsal skin. MNs were removed, and the application sites were scanned for fluorescence using the portable fluorescence reader. On the first day, sites were read after 0.5, 1, 4, and 6 h. On the second day, new MNs were applied and read immediately or 6 h after application. […]
# [2] = Reoxidation of H-Cy5-PEG/Cy7.5-PEG microneedle tattoo in excised porcine skin; conditions: H2O2 (100 mM) or Fenton's reagent (40 μM/400 μM), portable fluorescence reader
# Method: Microneedle tattoos containing both the sensor and reference dye were delivered ex vivo to excised porcine skin that had been treated with either distilled water (control), or a source of ROS—either H2O2 (100 mM) or Fenton's reagent (40 μM/400 μM).
# Excised porcine skin was obtained and shaved using a manual blade razor to remove any hair. The skin was permeabilized using a 1.0 mm dermaroller (DermaRollerSystem.com, Markham, ON), 200 μL of either distilled H2O, 100 mM H2O2, or Fenton's Reagent (40 μM FeSO4/400 μM H2O2) was added and allowed to soak into the skin for 20 minutes, after which any excess was removed with a paper towel. […] After removal of the MN backing layer, the fluorescence of the application site was measured with the portable fluorescence reader, using both the Cy5 and Cy7.5 filters (Cy5: λex=638 nm, λem=668-702 nm; Cy7.5: λex=782 nm, λem=810-840 nm). For each MN application, 3 measurements were recorded at each wavelength.
# [3] = 50 μM/500 μM of FeSO4:H2O2, 10 μM dye
Compound,diffusion in the skin (rat skin),Cy7.5-PEG fluorescence intensity over time [1],Cy7.5-PEG fluorescence intensity after application in vivo (UV-induced dermal ROS),fluorescence at Cy7.5-PEG wavelengths in the presence of ROS [2],signal retained when exposed to ROS [3]
"CN1/C(=C/C=C/C=C/C2=[N+](CCCCCC(=O)O)c3ccccc3C2(C)C)C(C)(C)c2ccccc21 [Cy5, Cyanine-5]",minimal diffusion,,,,
Cyanine-7.5-PEG [Cy7.5-PEG],,did not decrease,no significant decrease,unaffected,
"CN1/C(=C/C=C/C2=[N+](CCCCCC(=O)O)c3ccccc3C2(C)C)C(C)(C)c2ccccc21 [Cy3, Cyanine-3]",minimal diffusion,,,,40%
